Data as given in patent US7371534B2, “Sensitive intracellular calcium assay” (Discoverx Corporation, priority 2004, dated 2008).

Test system: Muscarinic receptor
Assay: Intracellular calcium assay for the effect of carbachol (Fluo-4 AM, FLIPR peak fluorescence)
Type: cell-based
Conditions: for change in signal based on the value at 10 nM: 10 nM to 1000 nM
Procedure: Assay is run in a standard 384-well microtiter plate with a clear bottom. Cells are seeded at a density of 30,000 cells/well, and allowed to grow overnight in standard tissue culture medium, under standard tissue culture conditions.
The next day, tissue culture supernatant is removed, and 50 μl of Calcium Reagent (Molecular Devices, Sunnyvale Calif.) is added to the wells. Plate is incubated for 1 hour at 37EC in a standard tissue culture incubator. This step loads the dye into the cells.
After the 1 hour incubation, the plate is transferred to the Molecular Device FLIPR instrument, which measures the cellular fluorescence (excitation at 488 nm /emission 515 nm filter), in one second intervals. The dye is hydrolyzed in the cell by esterases and becomes fluorescent. The instrument adds 25 microliters of carbachol (agonist for cellular calcium response) 10 seconds after the initiation of the read, and the increase in free cellular calcium resulting from carbachol stimulation is measured as an increase in cellular fluorescent signal.
The reagent: 3 μM Fluo-4 AM dye (Molecular Probes, Eugene Oreg.), 150 nM antibody in HEPES buffer (pH 7.4) containing 1% fetal bovine serum (Sigma), 0.1% Pluronic F127 (BASF) and 0.5 mM probenecid (Sigma) is added.
Instrument software identifies peak fluorescence, which is directly correlated to cellular calcium levels.

SMILES: C[N+](C)(C)CCOC(N)=O [Carbachol]
- change in signal based on the value at 10 nM (commercial reagent): 21%
- change in signal based on the value at 10 nM (present reagents): 161%
- Calcium Assay, RFU (peak fluorescence) (carbachol 10 nM, Commercial Reagents (prior art, Quencher-Ab conjugate -)): 9410 RFU
- Calcium Assay, RFU (peak fluorescence) (carbachol 10 nM, DiscoveRx Reagents (present reagents, Quencher-Ab conjugate +)): 2589 RFU
- Calcium Assay, RFU (peak fluorescence) (carbachol 1000 nM, Commercial Reagents (prior art, Quencher-Ab conjugate -)): 11348 RFU
- Calcium Assay, RFU (peak fluorescence) (carbachol 1000 nM, DiscoveRx Reagents (present reagents, Quencher-Ab conjugate +)): 6767 RFU
- difference in signal in going from 10 nM to 1000 nM (commercial reagent): 1938 RFU
- change in signal in going from 10 nM to 1000 nM (present reagents): 4178 RFU
